Experimental data published in paper PMC9005681, “Use of AD Informer Set compounds to explore validity of novel targets in Alzheimer's disease pathology” (Alzheimer's & Dementia : Translational Research & Clinical …, 2022).
Where “and” joins values, the source holds several entries; their conditions need not be identical. Equal values may be shown once.

What was measured:
Assay in all cases: PDSP GPCR panel primary binding assays at 10 μM
[1] = tested on: cloned human or rodent CNS receptors, channels, and transporters (PDSP panel); settings: primary assay; for Mean %: mean inhibition; for Inhibition 1: replicate 1; for Inhibition 2: replicate 2; for Inhibition 3: replicate 3; for Inhibition 4: replicate 4
Summary of the method: (§1)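 Competition binding with radiolabeled standard ligands, single 10 μM concentration, four replicates. Targets showing over 50% displacement were followed up with 11-point titrations in triplicate.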

[2] = biological target: T1, cloned human or rodent CNS receptors, channels, and transporters (PDSP panel) (Homo sapiens, UniProt P21917); settings: D4, primary assay
T1 construct: expressed in transfected cells
T1 sequence (P21917 1-419): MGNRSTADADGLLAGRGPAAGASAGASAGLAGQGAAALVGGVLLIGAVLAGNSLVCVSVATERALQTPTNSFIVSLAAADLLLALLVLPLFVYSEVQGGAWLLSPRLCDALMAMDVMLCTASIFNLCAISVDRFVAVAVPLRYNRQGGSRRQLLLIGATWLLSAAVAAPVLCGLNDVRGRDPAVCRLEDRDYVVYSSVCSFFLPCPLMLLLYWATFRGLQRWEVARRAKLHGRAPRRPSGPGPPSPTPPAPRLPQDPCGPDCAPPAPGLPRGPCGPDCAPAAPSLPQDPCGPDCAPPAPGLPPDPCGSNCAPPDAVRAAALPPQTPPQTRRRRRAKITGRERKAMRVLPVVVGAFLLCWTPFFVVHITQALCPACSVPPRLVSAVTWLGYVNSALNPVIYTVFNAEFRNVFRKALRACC
Summary of the method: as §1

[3] = biological target: T2, cloned human or rodent CNS receptors, channels, and transporters (PDSP panel) (Homo sapiens, UniProt P08173); settings: M4, primary assay
T2 construct: expressed in transfected cells
T2 sequence (P08173 1-479): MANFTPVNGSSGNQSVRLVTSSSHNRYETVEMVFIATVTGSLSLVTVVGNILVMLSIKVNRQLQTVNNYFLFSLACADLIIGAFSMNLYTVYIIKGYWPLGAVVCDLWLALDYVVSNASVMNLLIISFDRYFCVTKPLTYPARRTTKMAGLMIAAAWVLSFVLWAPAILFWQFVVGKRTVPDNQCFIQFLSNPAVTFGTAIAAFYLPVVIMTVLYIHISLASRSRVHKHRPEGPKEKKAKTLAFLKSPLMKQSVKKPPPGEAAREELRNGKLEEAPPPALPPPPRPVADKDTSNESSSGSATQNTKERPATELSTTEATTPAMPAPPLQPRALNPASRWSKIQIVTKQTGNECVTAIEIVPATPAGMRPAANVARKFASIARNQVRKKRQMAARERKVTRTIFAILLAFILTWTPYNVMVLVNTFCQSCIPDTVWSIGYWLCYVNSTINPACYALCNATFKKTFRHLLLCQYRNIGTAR
Summary of the method: as §1

[4] = biological target: T3, cloned human or rodent CNS receptors, channels, and transporters (PDSP panel) (Homo sapiens, UniProt P20309); settings: M3, primary assay
T3 construct: expressed in transfected cells
Summary of the method: as §1

[5] = biological target: T4, cloned human or rodent CNS receptors, channels, and transporters (PDSP panel) (Homo sapiens, UniProt P08908); settings: 5-HT1A, primary assay
T4 construct: expressed in transfected cells
T4 sequence (P08908 1-422): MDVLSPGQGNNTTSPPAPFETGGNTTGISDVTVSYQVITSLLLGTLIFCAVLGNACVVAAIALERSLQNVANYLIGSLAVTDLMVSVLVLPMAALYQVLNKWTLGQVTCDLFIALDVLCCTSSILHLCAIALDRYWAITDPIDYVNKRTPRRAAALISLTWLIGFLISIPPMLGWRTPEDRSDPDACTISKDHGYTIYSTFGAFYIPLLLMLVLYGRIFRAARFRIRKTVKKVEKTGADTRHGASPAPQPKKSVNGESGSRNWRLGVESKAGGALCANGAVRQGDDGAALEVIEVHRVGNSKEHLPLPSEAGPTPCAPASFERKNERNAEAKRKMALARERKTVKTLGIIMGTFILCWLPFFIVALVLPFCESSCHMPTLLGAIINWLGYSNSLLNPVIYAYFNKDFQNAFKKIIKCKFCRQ
Summary of the method: as §1

[6] = biological target: T5, cloned human or rodent CNS receptors, channels, and transporters (PDSP panel) (Homo sapiens, UniProt P50406); settings: 5-HT6, primary assay
T5 construct: expressed in transfected cells
Summary of the method: as §1

T5 sequence (P50406 whole entry): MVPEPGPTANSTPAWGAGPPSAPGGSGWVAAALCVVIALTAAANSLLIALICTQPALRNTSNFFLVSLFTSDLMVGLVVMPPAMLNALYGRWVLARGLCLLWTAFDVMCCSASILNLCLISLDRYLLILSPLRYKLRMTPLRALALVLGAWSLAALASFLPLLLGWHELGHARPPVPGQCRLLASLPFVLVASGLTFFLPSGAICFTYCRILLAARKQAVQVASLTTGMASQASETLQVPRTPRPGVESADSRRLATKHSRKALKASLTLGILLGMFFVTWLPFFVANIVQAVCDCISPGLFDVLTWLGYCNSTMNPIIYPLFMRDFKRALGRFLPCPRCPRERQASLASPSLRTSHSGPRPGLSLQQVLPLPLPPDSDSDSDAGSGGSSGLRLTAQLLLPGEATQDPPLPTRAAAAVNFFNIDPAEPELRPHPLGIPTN
T3 sequence (P20309 whole entry): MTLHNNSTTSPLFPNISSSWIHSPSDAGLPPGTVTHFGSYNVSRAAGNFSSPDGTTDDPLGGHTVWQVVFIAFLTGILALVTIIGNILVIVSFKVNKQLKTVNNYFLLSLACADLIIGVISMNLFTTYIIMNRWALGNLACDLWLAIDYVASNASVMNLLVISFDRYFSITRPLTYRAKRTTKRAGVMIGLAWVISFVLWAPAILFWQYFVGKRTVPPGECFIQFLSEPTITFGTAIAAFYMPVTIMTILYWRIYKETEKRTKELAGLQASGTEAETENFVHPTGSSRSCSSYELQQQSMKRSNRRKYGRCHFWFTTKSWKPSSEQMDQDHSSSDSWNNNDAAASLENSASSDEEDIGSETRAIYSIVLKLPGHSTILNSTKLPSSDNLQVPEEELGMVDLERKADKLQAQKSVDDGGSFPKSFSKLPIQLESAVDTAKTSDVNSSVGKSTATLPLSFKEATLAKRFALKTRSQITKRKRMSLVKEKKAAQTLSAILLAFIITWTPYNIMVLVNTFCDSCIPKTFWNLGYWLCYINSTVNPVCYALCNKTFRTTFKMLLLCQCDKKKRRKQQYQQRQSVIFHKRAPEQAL

CCC(=O)N1CCC(NC(=O)Nc2ccc(OC(F)(F)F)cc2)CC1 [UNC10302681A, TPPU]
Mean % ([1]; Alpha1A): -2.01%
Inhibition 1 ([1]; Alpha1A): 4.58%
Inhibition 2 ([1]; Alpha1A): -5.33%
Inhibition 3 ([1]; Alpha1A): -5.52%
Inhibition 4 ([1]; Alpha1A): -1.78%
Mean % ([1]; Alpha2A): -5.2%
Inhibition 1 ([1]; Alpha2A): -1.74%
Inhibition 2 ([1]; Alpha2A): -8.16%
Inhibition 3 ([1]; Alpha2A): -13.09%
Inhibition 4 ([1]; Alpha2A): 2.19%
Mean % ([1]; Alpha2C): -0.34%
Inhibition 1 ([1]; Alpha2C): 3.18%
Inhibition 2 ([1]; Alpha2C): -3.57%
Inhibition 3 ([1]; Alpha2C): 7.34%
Inhibition 4 ([1]; Alpha2C): -8.31%
Mean % ([1]; BZP Rat Brain Site): 9.51%
Inhibition 1 ([1]; BZP Rat Brain Site): 23.2%
Inhibition 2 ([1]; BZP Rat Brain Site): 7.09%
Inhibition 3 ([1]; BZP Rat Brain Site): 1.4%
Inhibition 4 ([1]; BZP Rat Brain Site): 6.33%
Mean % ([1]; DOR): -1.52%
Inhibition 1 ([1]; DOR): 6.89%
Inhibition 2 ([1]; DOR): -4.86%
Inhibition 3 ([1]; DOR): -4.68%
Inhibition 4 ([1]; DOR): -3.41%
Mean % ([1]; GABAA): -2.31% and -7.5%
Inhibition 1 ([1]; GABAA): 16.54% and 5.88%
Inhibition 2 ([1]; GABAA): -7.12% and -3.31%
Inhibition 3 ([1]; GABAA): -2.68% and -32.5%
Inhibition 4 ([1]; GABAA): -15.99% and -0.07%
Mean % ([1]; H3): 21.21%
Inhibition 1 ([1]; H3): 28.2%
Inhibition 2 ([1]; H3): 25.87%
Inhibition 3 ([1]; H3): 12.17%
Inhibition 4 ([1]; H3): 18.58%
Mean % ([1]; H4): -7.02%
Inhibition 1 ([1]; H4): -3.06%
Inhibition 2 ([1]; H4): -20.34%
Inhibition 3 ([1]; H4): -7.38%
Inhibition 4 ([1]; H4): 2.7%
Mean % ([1]; Sigma 1): 19.57%
Mean % ([1]; Sigma 2): 21.21%
Mean % ([2]; mean inhibition): 5.93%
Inhibition 1 ([2]; replicate 1): 5.07%
Inhibition 2 ([2]; replicate 2): 3.44%
Inhibition 3 ([2]; replicate 3): 0%
Inhibition 4 ([2]; replicate 4): 15.2%
Mean % ([3]; mean inhibition): 27.22%
Inhibition 1 ([3]; replicate 1): 20.33%
Inhibition 2 ([3]; replicate 2): 6.55%
Inhibition 3 ([3]; replicate 3): 30.66%
Inhibition 4 ([3]; replicate 4): 51.34%
Mean % ([4]; mean inhibition): 3.57%
Inhibition 1 ([4]; replicate 1): 4.75%
Inhibition 2 ([4]; replicate 2): 5.92%
Inhibition 3 ([4]; replicate 3): 13.87%
Inhibition 4 ([4]; replicate 4): -10.26%
Mean % ([5]; mean inhibition): 6.94%
Inhibition 1 ([5]; replicate 1): 9.39%
Inhibition 2 ([5]; replicate 2): 25.6%
Inhibition 3 ([5]; replicate 3): 0.78%
Inhibition 4 ([5]; replicate 4): -8.02%
Mean % ([6]; mean inhibition): -0.91%
Inhibition 1 ([6]; replicate 1): 25.92%
Inhibition 2 ([6]; replicate 2): -7.74%
Inhibition 3 ([6]; replicate 3): -9.33%
Inhibition 4 ([6]; replicate 4): -12.5%
